Measured values reported in ChEMBL document CHEMBL1201862, “PubChem BioAssay data set” (2004).
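Interpolation was linear, between the two tested concentrations surrounding the appropriate level; five concentrations were tested over 48 hours in 96-well plates. GI50 marks 50% less growth.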 Calls of active or inactive are those of the source. Cut-off read from the data, not from the text of the source: active = GI50 up to about 1.1 µM and inactive = higher.

Columns and labels:
Test in all cases: inhibition of tumour cell growth, NCI panel, 48 h
U-251 = tested on: U-251
MDA-MB-231 = tested on: MDA-MB-231
HL-60 = tested on: HL-60
ACHN = tested on: ACHN
UO-31 = tested on: UO-31
MDA-MB-435 = tested on: MDA-MB-435
HCT-116 = tested on: HCT-116
A549 = tested on: A549
M14 = tested on: M14
HCC 2998 = tested on: HCC 2998
LOX IMVI = tested on: LOX IMVI
OVCAR-5 = tested on: OVCAR-5
CCRF-CEM = tested on: CCRF-CEM
COLO 205 = tested on: COLO 205
NCI-H460 = tested on: NCI-H460
NCI-H522 = tested on: NCI-H522
SW-620 = tested on: SW-620
Malme-3M = tested on: Malme-3M
MCF7 = tested on: MCF7
IGROV-1 = tested on: IGROV-1

Row | SMILES | GI50 (U-251) | GI50 (MDA-MB-231) | GI50 (HL-60) | GI50 (ACHN) | GI50 (UO-31) | GI50 (MDA-MB-435) | GI50 (HCT-116) | GI50 (A549) | GI50 (M14) | GI50 (HCC 2998) | GI50 (LOX IMVI) | GI50 (OVCAR-5) | GI50 (CCRF-CEM) | GI50 (COLO 205) | GI50 (NCI-H460) | GI50 (NCI-H522) | GI50 (SW-620) | GI50 (Malme-3M) | GI50 (MCF7) | GI50 (IGROV-1)
1 | CC1=CC(=O)C2=C(C)CCC3C(C)C(=O)OC3C12 (stereo unspecified) | > 100 µM (inactive) | > 100 µM (inactive) | > 100 µM (inactive) | > 100 µM (inactive) | > 100 µM (inactive) | > 100 µM (inactive) | > 100 µM (inactive) | > 100 µM (inactive) | > 100 µM (inactive) | > 100 µM (inactive) | > 100 µM (inactive) | > 100 µM (inactive) | > 100 µM (inactive) | > 100 µM (inactive) | > 100 µM (inactive) | > 100 µM (inactive) | > 100 µM (inactive) | > 100 µM (inactive) | > 100 µM (inactive) | > 100 µM (inactive)
2 | CCOC(=O)C(NCc1ccc2c(c1)OCO2)(NC(=O)c1ccccc1)C(F)(F)F (stereo unspecified) | > 100 µM (inactive) | 64.4 µM (inactive) | 16.9 µM (inactive) | > 100 µM (inactive) | 51.3 µM (inactive) | > 100 µM (inactive) | 89.1 µM (inactive) | 71 µM (inactive) | > 100 µM (inactive) | > 100 µM (inactive) | > 100 µM (inactive) | > 100 µM (inactive) | 19.5 µM (inactive) | > 100 µM (inactive) |  | 39.1 µM (inactive) | > 100 µM (inactive) | > 100 µM (inactive) | 60.3 µM (inactive) | > 100 µM (inactive)
3 | NC(=O)C(=CNC(=S)Nc1ccc(Cl)c(Cl)c1)C(N)=O | > 56 µM (inactive) | > 100 µM (inactive) | > 60.1 µM (inactive) | > 94 µM (inactive) | 16.5 µM (inactive) | 44.8 µM (inactive) | > 78.2 µM (inactive) | > 100 µM (inactive) | > 100 µM (inactive) | 26.8 µM (inactive) | > 92.3 µM (inactive) | > 100 µM (inactive) | > 80.4 µM (inactive) | 42.8 µM (inactive) | > 100 µM (inactive) | 17.5 µM (inactive) | > 100 µM (inactive) | > 100 µM (inactive) | > 52 µM (inactive) | 92.7 µM (inactive)
4 | Cc1c2oc3c(C)cnc(C(=O)NC4C(=O)NC(C(C)C)C(=O)N5CCCC5C(=O)N(C)CC(=O)N(C)C(C(C)C)C(=O)OC4C)c3nc-2c(C(=O)NC2C(=O)NC(C(C)C)C(=O)N3CCCC3C(=O)N(C)CC(=O)N(C)C(C(C)C)C(=O)OC2C)c(N)c1=O (stereo unspecified) | 0.931 µM (active) | 9.77 µM (inactive) | 0.769 µM (active) | 5.48 µM (inactive) | 14.2 µM (inactive) | 2.74 µM (inactive) | 0.396 µM (active) | 3.37 µM (inactive) | 3.4 µM (inactive) | 2.67 µM (inactive) | 0.348 µM (active) | 13.2 µM (inactive) | 0.121 µM (active) | 1.8 µM (inactive) | 1.03 µM (active) | 0.673 µM (active) | 0.346 µM (active) | 1.28 µM (inactive) | 0.805 µM (active) | 0.687 µM (active)
5 | COc1cc(/C=C2\C(=O)N(c3cccc(NC(C)=O)c3)C(c3ccccc3)S2(=O)=O)cc(OC)c1OC (stereo unspecified) | 59.8 µM (inactive) | > 100 µM (inactive) | 17.5 µM (inactive) | > 100 µM (inactive) | 50.5 µM (inactive) | 47.9 µM (inactive) | 37.8 µM (inactive) | > 100 µM (inactive) | > 100 µM (inactive) | > 100 µM (inactive) | 54.2 µM (inactive) | > 100 µM (inactive) | 30.3 µM (inactive) | 63.1 µM (inactive) | 67.5 µM (inactive) | 28.4 µM (inactive) | 56.2 µM (inactive) | 93.5 µM (inactive) | 31 µM (inactive) | > 100 µM (inactive)
6 | Nc1cc(CO)cc(Nc2c3ccccc3nc3occc23)c1 | 45.9 µM (inactive) | 31.8 µM (inactive) | 22.8 µM (inactive) | 29.8 µM (inactive) | 32.2 µM (inactive) | 10.5 µM (inactive) | 24.8 µM (inactive) | 40.4 µM (inactive) | 33.6 µM (inactive) | 31.3 µM (inactive) | 36.6 µM (inactive) | > 100 µM (inactive) | 48.1 µM (inactive) | 28.6 µM (inactive) | 21.2 µM (inactive) | 14.4 µM (inactive) |  | 92 µM (inactive) | 20 µM (inactive) | 24.5 µM (inactive)
7 | Cc1cccc2c1C(=O)[C@](C)([C@]1(C)Nc3cccc(C)c3C1=O)N2 | 60.3 µM (inactive) | 37.1 µM (inactive) | < 0.01 µM (active) | 43.9 µM (inactive) | 18.1 µM (inactive) | 15.7 µM (inactive) | 56.6 µM (inactive) | 26.4 µM (inactive) | 33.9 µM (inactive) | 31.9 µM (inactive) | 29.3 µM (inactive) | 24.3 µM (inactive) | 17.6 µM (inactive) | 19.7 µM (inactive) | 31 µM (inactive) | 28.6 µM (inactive) | 30.7 µM (inactive) | 36.3 µM (inactive) | 45.4 µM (inactive) | 33.5 µM (inactive)
8 | COc1cc(OCc2nc3ccccc3n3cccc23)cc(OC)c1OC | 23.3 µM (inactive) | 40.6 µM (inactive) | 9.35 µM (inactive) | 21.6 µM (inactive) | 28.1 µM (inactive) | 16 µM (inactive) | 17.5 µM (inactive) | 20.3 µM (inactive) | 20.7 µM (inactive) | 43.8 µM (inactive) | 22.2 µM (inactive) | > 52 µM (inactive) | 8.49 µM (inactive) | 16.8 µM (inactive) | 20.5 µM (inactive) | 13.1 µM (inactive) | 8.34 µM (inactive) | 20.6 µM (inactive) | 3.61 µM (inactive) | 20.3 µM (inactive)
9 | Cc1cccc2c1CC1(Cc3c(C)cccc3C1=O)C2=O | > 100 µM (inactive) | > 100 µM (inactive) | > 100 µM (inactive) | > 100 µM (inactive) | > 100 µM (inactive) | > 100 µM (inactive) | > 100 µM (inactive) | > 100 µM (inactive) | > 100 µM (inactive) | > 100 µM (inactive) | > 100 µM (inactive) | > 100 µM (inactive) | > 100 µM (inactive) |  | > 100 µM (inactive) | > 100 µM (inactive) | > 100 µM (inactive) | > 100 µM (inactive) | > 100 µM (inactive) | > 100 µM (inactive)
10 | C#CCOC(=O)C(N)CC(N)=O (stereo unspecified) | > 100 µM (inactive) | > 100 µM (inactive) | > 100 µM (inactive) | > 100 µM (inactive) | > 100 µM (inactive) | > 100 µM (inactive) | > 100 µM (inactive) | > 100 µM (inactive) | > 100 µM (inactive) | > 100 µM (inactive) | > 100 µM (inactive) | > 100 µM (inactive) | > 100 µM (inactive) | > 100 µM (inactive) | > 100 µM (inactive) | > 100 µM (inactive) | > 100 µM (inactive) | > 100 µM (inactive) | > 100 µM (inactive) | > 100 µM (inactive)
11 | O=[N+]([O-])c1ccccc1S(=O)(=O)c1cc(O)cc2c1NCCC2 | 20.2 µM (inactive) | 18.2 µM (inactive) | 3.47 µM (inactive) | 14.2 µM (inactive) | 15.5 µM (inactive) | 18.8 µM (inactive) | 5.78 µM (inactive) | 29.8 µM (inactive) | 17 µM (inactive) | 25.5 µM (inactive) | 14.2 µM (inactive) | 23 µM (inactive) | 2.15 µM (inactive) | 17.1 µM (inactive) | 23.4 µM (inactive) | 7.5 µM (inactive) | 8.41 µM (inactive) | 17.4 µM (inactive) | 7.45 µM (inactive) | 17.1 µM (inactive)
12 | COc1ccc(COCC[C@H](C)OC2OC(CO[Si](C)(C)C(C)(C)C)C(OC(=O)CCCN=[N+]=[N-])C(OC(=O)CCCN=[N+]=[N-])C2OC(=O)CCCN=[N+]=[N-])cc1 (stereo partly specified) | 29.6 µM (inactive) | > 100 µM (inactive) | 10.6 µM (inactive) |  | 19.9 µM (inactive) | > 100 µM (inactive) | 19.5 µM (inactive) | > 100 µM (inactive) | 68.5 µM (inactive) | 34.4 µM (inactive) | 25.2 µM (inactive) | 89.1 µM (inactive) | 17.5 µM (inactive) | 25.6 µM (inactive) | 55.5 µM (inactive) | 18.7 µM (inactive) | > 100 µM (inactive) | > 100 µM (inactive) | 25.9 µM (inactive) | 51.5 µM (inactive)
13 | C[C@H](CCC(=O)O)[C@H]1CC[C@H]2[C@@H]3[C@@H](O)C[C@@H]4C[C@H](O)CC[C@]4(C)[C@H]3CC[C@]12C | 58.6 µM (inactive) | > 100 µM (inactive) | 63.5 µM (inactive) | > 100 µM (inactive) | 57.5 µM (inactive) | > 100 µM (inactive) | 61.7 µM (inactive) | 61.4 µM (inactive) | 95.3 µM (inactive) | > 100 µM (inactive) | > 100 µM (inactive) | > 100 µM (inactive) | 60.8 µM (inactive) | > 100 µM (inactive) | 58.2 µM (inactive) | > 100 µM (inactive) | > 100 µM (inactive) | > 100 µM (inactive) | 86.7 µM (inactive) | > 100 µM (inactive)
